Calls of active or inactive are those of the source. The rule behind the calls is not given here. Where a SMILES comes first, the peptide text is derived from it. [ ]: non-standard residue; d: D form. Hica(2S) = CC(C)C[C@H](O)C(=O)O; NMeL = CN[C@@H](CC(C)C)C(=O)O
Experiments:
[1] = biological target: T1, Peroxisome proliferator-activated receptor gamma (Homo sapiens) (UniProt P37231); assay: Agonist activity at human PPARgamma ligand binding domain fused with GAL4 DNA binding domain transfected in African green monkey COS1 cells assessed as transcriptional activation after 24 hrs by Steady-Glo luciferase reporter gene assay; type: cell-based; details: COS-1
T1 sequence (whole entry): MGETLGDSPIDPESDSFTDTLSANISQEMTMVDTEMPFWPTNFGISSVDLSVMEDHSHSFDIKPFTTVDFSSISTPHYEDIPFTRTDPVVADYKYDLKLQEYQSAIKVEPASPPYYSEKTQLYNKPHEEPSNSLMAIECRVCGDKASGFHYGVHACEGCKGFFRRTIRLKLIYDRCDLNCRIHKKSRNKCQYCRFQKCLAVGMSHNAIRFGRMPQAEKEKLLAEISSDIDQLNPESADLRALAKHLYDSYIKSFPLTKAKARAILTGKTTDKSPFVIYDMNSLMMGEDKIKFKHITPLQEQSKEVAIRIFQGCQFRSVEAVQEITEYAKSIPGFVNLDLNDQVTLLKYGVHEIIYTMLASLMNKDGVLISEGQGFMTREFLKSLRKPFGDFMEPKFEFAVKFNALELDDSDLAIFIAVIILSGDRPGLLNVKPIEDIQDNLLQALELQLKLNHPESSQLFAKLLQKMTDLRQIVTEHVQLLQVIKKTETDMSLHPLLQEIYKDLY

[2] = Upregulation of adiponectin mRNA expression in mouse ST-13 cells at 2 uM by RT-qPCR analysis relative to control; type: functional, cell-based
[3] = test system: ST-13; assay: Induction of mouse ST-13 cell differentiation assessed as increase in accumulation of lipid droplets in cytosol at 2 to 4 uM after 11 days by oil red o staining-based phase contrast microscopic analysis; type: functional

Row | SMILES | Activity [1] | fold change (FC) [2] | Activity [3]
1 | CC(C)C[C@@H]1OC(=O)[C@H](Cc2ccccc2)NC(=O)[C@H](Cc2ccccc2)NC(=O)[C@H](CC(C)C)N(C)C(=O)[C@H](C(C)C)NC1=O (cyclo(FF[Hica(2S)]V[NMeL])) | Dose-dependent effect | 13.3 | Active
2 | CC(C)C[C@@H]1NC(=O)[C@H](C(C)C)NC(=O)[C@H](CC(C)C)OC(=O)[C@H](Cc2ccccc2)NC(=O)[C@H](Cc2ccccc2)NC1=O (cyclo(FF[Hica(2S)]VL)) | Dose-dependent effect | 5.2 | Active
3 | CC(C)C[C@@H]1OC(=O)[C@H](Cc2ccccc2)NC(=O)[C@H](Cc2c[nH]c3ccccc23)NC(=O)[C@H](CC(C)C)N(C)C(=O)[C@H](C(C)C)NC1=O (cyclo(F[Hica(2S)]V[NMeL]W)) | Dose-dependent effect | 10 | Active
